Source: article PMC10247784, “Physiological activation of human and mouse bitter taste receptors by bile acids” (Communications Biology, 2023)
Several values for one entry are separate records, joined by “and”; a condition that tells them apart may be missing. Equal entries are not always repeated.

Molecular target: T1, human TAS2R14 (Homo sapiens, UniProt Q9NYV8)
T1 construct: expressed in transfected cells; host or cells: HEK293T-Gα16gust44
T1 sequence (Q9NYV8 1-317): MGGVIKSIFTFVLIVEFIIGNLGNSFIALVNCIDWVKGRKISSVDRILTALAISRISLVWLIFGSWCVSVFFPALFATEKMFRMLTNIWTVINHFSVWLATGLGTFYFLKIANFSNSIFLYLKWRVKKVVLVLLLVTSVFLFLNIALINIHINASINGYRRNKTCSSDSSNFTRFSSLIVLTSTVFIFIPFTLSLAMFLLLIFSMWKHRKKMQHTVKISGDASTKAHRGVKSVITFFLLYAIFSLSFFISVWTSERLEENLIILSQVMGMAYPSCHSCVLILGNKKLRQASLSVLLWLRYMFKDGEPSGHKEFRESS
Assay: Calcium imaging assay (FLIPR), HEK293T-Gα16gust44 cells transfected with human TAS2R14
Type: cell-based
Conditions: for RLU: TAS2R14 trace
Procedure, shortened: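 Read-out is Fluo-4 fluorescence change (ΔF/F) after automated application of bile acids (DMSO stocks) to transiently transfected cells. Values are corrected for empty-vector cells and normalized to buffer. Dose-response from three independent experiments in duplicate; threshold concentration set at p < 0.01 versus mock.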

C[C@H](CCC(=O)NCC(=O)O)[C@H]1CC[C@H]2[C@@H]3[C@H](O)C[C@@H]4C[C@H](O)CC[C@]4(C)[C@H]3C[C@H](O)[C@]12C [Glycocholic Acid, glycocholic acid]
Efficacy = maximal amplitude (ΔF/F) (TAS2R14, bile acids, mean): 0.2451
Efficacy (maximal amplitude ΔF/F), individual data points (TAS2R14, bile acids, single replicates, listed as GCA): 0.2248 and 0.2913 and 0.2191
Δ F/F (TAS2R14, conc. 0,01 mM): 0.002092
Δ F/F (TAS2R14, conc. 0,1 mM): 0.02639
Δ F/F (TAS2R14, conc. 0,03 mM): 0.01392
Δ F/F (TAS2R14, conc. 0,3 mM): 0.06546
Δ F/F (TAS2R14, conc. 0,001 mM): 0.007446
Δ F/F (TAS2R14, conc. 1 mM): 0.2451
Δ F/F (TAS2R14, conc. 0,003 mM): 0.001619
RLU (Time (s) 0): 0 RLU
RLU (Time (s) 2 (Taurocholic Acid 2.016)): -6.072 RLU
RLU (Time (s) 4 (Taurocholic Acid 4.016)): -9.1 RLU
RLU (Time (s) 6 (Taurocholic Acid 6.016)): -27.0469 RLU
RLU (Time (s) 8 (Taurocholic Acid 8.016)): -30.0405 RLU
RLU (Time (s) 12 (Taurocholic Acid 12.016)): -37.9898 RLU
RLU (Time (s) 14 (Taurocholic Acid 14.016)): -36.9901 RLU
RLU (Time (s) 16 (Taurocholic Acid 16.016)): -51.9041 RLU
RLU (Time (s) 18 (Taurocholic Acid 18.016)): -34 RLU
RLU (Time (s) 18.797 (Chenodeoxycholic Acid 18.765)): -73.9735 RLU
RLU (Time (s) 20.797 (Chenodeoxycholic Acid 20.781)): -100.333 RLU
RLU (Time (s) 22.797 (Chenodeoxycholic Acid 22.781)): -58.0996 RLU
RLU (Time (s) 24.797 (Chenodeoxycholic Acid 24.781)): -11.7946 RLU
RLU (Time (s) 26.797 (Chenodeoxycholic Acid 26.781)): -4.829 RLU
RLU (Time (s) 28.797 (Chenodeoxycholic Acid 28.781)): -12.95 RLU
RLU (Time (s) 30.797 (Chenodeoxycholic Acid 30.781)): 25.2324 RLU
RLU (Time (s) 32.797 (Chenodeoxycholic Acid 32.781)): 58.2752 RLU
RLU (Time (s) 34.797 (Chenodeoxycholic Acid 34.781)): 56.7501 RLU
RLU (Time (s) 36.797 (Chenodeoxycholic Acid 36.781)): 94.7938 RLU
RLU (Time (s) 38.797 (Chenodeoxycholic Acid 38.781)): 109.443 RLU
RLU (Time (s) 40.797 (Chenodeoxycholic Acid 40.781)): 134.729 RLU
RLU (Time (s) 42.797 (Chenodeoxycholic Acid 42.781)): 165.138 RLU
RLU (Time (s) 44.797 (Chenodeoxycholic Acid 44.781)): 223.768 RLU
RLU (Time (s) 46.797 (Chenodeoxycholic Acid 46.781)): 253.169 RLU
RLU (Time (s) 48.797 (Chenodeoxycholic Acid 48.781)): 284.606 RLU
RLU (Time (s) 50.797 (Chenodeoxycholic Acid 50.781)): 322.537 RLU
RLU (Time (s) 52.797 (Chenodeoxycholic Acid 52.781)): 365.455 RLU
RLU (Time (s) 54.797 (Chenodeoxycholic Acid 54.781)): 404.11 RLU
RLU (Time (s) 56.797 (Chenodeoxycholic Acid 56.781)): 424.679 RLU
RLU (Time (s) 58.797 (Chenodeoxycholic Acid 58.781)): 448.405 RLU
RLU (Time (s) 60.797 (Chenodeoxycholic Acid 60.781)): 513.015 RLU
RLU (Time (s) 62.797 (Chenodeoxycholic Acid 62.781)): 520.328 RLU
RLU (Time (s) 64.797 (Chenodeoxycholic Acid 64.781)): 518.587 RLU
RLU (Time (s) 66.797 (Chenodeoxycholic Acid 66.781)): 566.626 RLU
RLU (Time (s) 68.797 (Chenodeoxycholic Acid 68.781)): 571.358 RLU
RLU (Time (s) 70.797 (Chenodeoxycholic Acid 70.781)): 583.853 RLU
RLU (Time (s) 72.797 (Chenodeoxycholic Acid 72.781)): 622.789 RLU
RLU (Time (s) 74.797 (Chenodeoxycholic Acid 74.781)): 701.49 RLU
RLU (Time (s) 76.797 (Chenodeoxycholic Acid 76.781)): 688.581 RLU
RLU (Time (s) 78.797 (Chenodeoxycholic Acid 78.781)): 706.104 RLU
RLU (Time (s) 80.797 (Chenodeoxycholic Acid 80.781)): 737.493 RLU
RLU (Time (s) 82.797 (Chenodeoxycholic Acid 82.781)): 736.745 RLU
RLU (Time (s) 84.797 (Chenodeoxycholic Acid 84.781)): 766.635 RLU
RLU (Time (s) 86.797 (Chenodeoxycholic Acid 86.781)): 784.026 RLU
RLU (Time (s) 88.797 (Chenodeoxycholic Acid 88.781)): 835.93 RLU
RLU (Time (s) 90.797 (Chenodeoxycholic Acid 90.781)): 879.758 RLU
RLU (Time (s) 92.797 (Chenodeoxycholic Acid 92.781)): 905.014 RLU
RLU (Time (s) 94.797 (Chenodeoxycholic Acid 94.781)): 871.313 RLU
RLU (Time (s) 96.797 (Chenodeoxycholic Acid 96.781)): 875.012 RLU
RLU (Time (s) 98.797 (Chenodeoxycholic Acid 98.781)): 900.527 RLU
RLU (Time (s) 100.797 (Chenodeoxycholic Acid 100.781)): 907.622 RLU
RLU (Time (s) 102.797 (Chenodeoxycholic Acid 102.781)): 872.83 RLU
RLU (Time (s) 104.797 (Chenodeoxycholic Acid 104.781)): 919.127 RLU
RLU (Time (s) 106.797 (Chenodeoxycholic Acid 106.781)): 885.988 RLU
RLU (Time (s) 108.797 (Chenodeoxycholic Acid 108.781)): 899.974 RLU
RLU (Time (s) 110.797 (Chenodeoxycholic Acid 110.781)): 929.16 RLU
RLU (Time (s) 112.797 (Chenodeoxycholic Acid 112.781)): 924.683 RLU
RLU (Time (s) 114.797 (Chenodeoxycholic Acid 114.781)): 936.987 RLU
RLU (Time (s) 116.797 (Chenodeoxycholic Acid 116.781)): 927.195 RLU
RLU (Time (s) 118.797 (Chenodeoxycholic Acid 118.781)): 907.689 RLU
RLU (Time (s) 120.797 (Chenodeoxycholic Acid 120.781)): 904.35 RLU
RLU (Time (s) 122.797 (Chenodeoxycholic Acid 122.781)): 945.812 RLU
RLU (Time (s) 124.797 (Chenodeoxycholic Acid 124.781)): 947.759 RLU
RLU (Time (s) 126.797 (Chenodeoxycholic Acid 126.781)): 937.139 RLU
RLU (Time (s) 128.797 (Chenodeoxycholic Acid 128.781)): 931.219 RLU
RLU (Time (s) 130.797 (Chenodeoxycholic Acid 130.781)): 907.598 RLU
RLU (Time (s) 132.797 (Chenodeoxycholic Acid 132.781)): 937.794 RLU
RLU (Time (s) 134.797 (Chenodeoxycholic Acid 134.781)): 944.802 RLU
RLU (Time (s) 136.797 (Chenodeoxycholic Acid 136.781)): 914.908 RLU
RLU (Time (s) 137.562 (Taurocholic Acid 137.563, Chenodeoxycholic Acid 137.546)): 923.636 RLU
RLU (Time (s) 143.578 (Taurocholic Acid 143.563, Chenodeoxycholic Acid 143.546)): 874.438 RLU
RLU (Time (s) 149.578 (Taurocholic Acid 149.563, Chenodeoxycholic Acid 149.546)): 827.247 RLU
RLU (Time (s) 155.578 (Taurocholic Acid 155.563, Chenodeoxycholic Acid 155.546)): 796.558 RLU
RLU (Time (s) 161.578 (Taurocholic Acid 161.563, Chenodeoxycholic Acid 161.546)): 810.447 RLU
RLU (Time (s) 167.578 (Taurocholic Acid 167.563, Chenodeoxycholic Acid 167.546)): 731.625 RLU
RLU (Time (s) 173.578 (Taurocholic Acid 173.563, Chenodeoxycholic Acid 173.546)): 735.471 RLU
RLU (Time (s) 179.578 (Taurocholic Acid 179.563, Chenodeoxycholic Acid 179.546)): 706.541 RLU
RLU (Time (s) 191.578 (Taurocholic Acid 191.563, Chenodeoxycholic Acid 191.546)): 666.973 RLU
RLU (Time (s) 197.578 (Taurocholic Acid 197.563, Chenodeoxycholic Acid 197.546)): 650.688 RLU
RLU (Time (s) 209.578 (Taurocholic Acid 209.563, Chenodeoxycholic Acid 209.546)): 612.527 RLU
RLU (Time (s) 221.578 (Taurocholic Acid 221.563, Chenodeoxycholic Acid 221.546)): 516.97 RLU
RLU (Time (s) 233.578 (Taurocholic Acid 233.563, Chenodeoxycholic Acid 233.546)): 445.674 RLU
RLU (Time (s) 239.578 (Taurocholic Acid 239.563, Chenodeoxycholic Acid 239.546)): 433.467 RLU
RLU (Time (s) 245.578 (Taurocholic Acid 245.563, Chenodeoxycholic Acid 245.546)): 428.616 RLU
RLU (Time (s) 293.578 (Taurocholic Acid 293.563, Chenodeoxycholic Acid 293.546)): 228.532 RLU
RLU (Time (s) 299.578 (Taurocholic Acid 299.563, Chenodeoxycholic Acid 299.546)): 222.955 RLU
RLU (Time (s) 305.578 (Taurocholic Acid 305.563, Chenodeoxycholic Acid 305.546)): 237.423 RLU
RLU (Time (s) 311.578 (Taurocholic Acid 311.563, Chenodeoxycholic Acid 311.546)): 201.505 RLU
RLU (Time (s) 317.578 (Taurocholic Acid 317.563, Chenodeoxycholic Acid 317.546)): 204.947 RLU
RLU (Time (s) 323.578 (Taurocholic Acid 323.563, Chenodeoxycholic Acid 323.546)): 189.257 RLU
RLU (Time (s) 329.578 (Taurocholic Acid 329.563, Chenodeoxycholic Acid 329.546)): 164.774 RLU
RLU (Time (s) 335.578 (Taurocholic Acid 335.563, Chenodeoxycholic Acid 335.546)): 171.566 RLU
RLU (Time (s) 341.578 (Taurocholic Acid 341.563, Chenodeoxycholic Acid 341.546)): 143.607 RLU
RLU (Time (s) 347.578 (Taurocholic Acid 347.563, Chenodeoxycholic Acid 347.546)): 131.554 RLU
RLU (Time (s) 353.578 (Taurocholic Acid 353.563, Chenodeoxycholic Acid 353.546)): 173.027 RLU
RLU (Time (s) 359.578 (Taurocholic Acid 359.563, Chenodeoxycholic Acid 359.546)): 156.135 RLU
Activation threshold concentration TAS2R14 (lowest concentration with significantly increased fluorescence vs empty vector (p < 0.01)): 100 µM
